Patent publication US6737383B1, “Herbicidal oxadiazolidines” (priority 1999, dated 2004)

Legend:
crabgrass = assay: Test B pre/postemergence crabgrass; format: in vivo, Digitaria sanguinalis
How it was run: (§1)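 Response is a visual 0-to-10 score relative to untreated plants, where 0 means no effect and 10 means complete control, taken twelve to sixteen days after application. Treatments went onto soil at planting and onto foliage of 1- to 4-leaf plants, using a surfactant-containing non-phytotoxic solvent.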

purple nutsedge = assay: Test B pre/postemergence purple nutsedge; format: in vivo, Cyperus rotundus
How it was run: as §1

surinam grass = assay: Test B pre/postemergence surinam grass; format: in vivo, Brachiaria decumbens
How it was run: as §1

corn = assay: Test B pre/postemergence corn; format: in vivo, Zea mays
How it was run: as §1

duck salad = assay: Test B flood test duck salad; format: in vivo, Heteranthera limosa
How it was run: (§2)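 Each value is a visual injury score relative to controls, with 10 meaning complete control and 0 no effect. Evaluation took place twelve to sixteen days after the 2-leaf-stage plants were treated and kept in the greenhouse.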

rice = assay: Test B flood test rice; format: in vivo, Oryza sativa
How it was run: as §2

pigweed = assay: Test B pre/postemergence pigweed; format: in vivo, Amaranthus retroflexus
How it was run: as §1

rape = assay: Test B pre/postemergence rape; format: in vivo, Brassica napus
How it was run: as §1

blackgrass = assay: Test B pre/postemergence blackgrass; format: in vivo, Alopecurus myosuroides
How it was run: as §1

soybean = assay: Test B pre/postemergence soybean; format: in vivo, Glycine max
How it was run: as §1

cocklebur = assay: Test B pre/postemergence cocklebur; format: in vivo, Xanthium strumarium
How it was run: as §1

sugar beet = assay: Test B pre/postemergence sugar beet; format: in vivo, Beta vulgaris
How it was run: as §1

morningglory = assay: Test B pre/postemergence morningglory; format: in vivo, Ipomoea hederacea
How it was run: as §1

wild oat = assay: Test B pre/postemergence wild oat; format: in vivo, Avena fatua
How it was run: as §1

velvetleaf = assay: Test B pre/postemergence velvetleaf; format: in vivo, Abutilon theophrasti
How it was run: as §1

giant foxtail = assay: Test B pre/postemergence giant foxtail; format: in vivo, Setaria faberii
How it was run: as §1

[1] = Preemergence, Rate 62 g/ha, scale of 0 to 10 where 0 is no effect and 10 is complete control
[2] = Preemergence, Rate 250 g/ha, scale of 0 to 10 where 0 is no effect and 10 is complete control
[3] = Preemergence, Rate 500 g/ha, scale of 0 to 10 where 0 is no effect and 10 is complete control
[4] = Rate 62 g/ha, Postemergence, scale 0 to 10 (0 no effect, 10 complete control)
[5] = Rate 125 g/ha, Postemergence, scale of 0 to 10 where 0 is no effect and 10 is complete control
[6] = Rate 125 g/ha, Preemergence, scale of 0 to 10 where 0 is no effect and 10 is complete control
[7] = Rate 250 g/ha, Postemergence, scale of 0 to 10 where 0 is no effect and 10 is complete control
[8] = Rate 500 g/ha, Postemergence, scale 0 to 10, 0 no effect, 10 complete control
[9] = Rate 62 g/ha, headed Pre-emergence (flood test species), scale 0 to 10 (0 no effect, 10 complete control)
[10] = Rate 125 g/ha, Pre-emergence, flood test species, scale 0 to 10 where 0 is no effect and 10 is complete control
[11] = Rate 250 g/ha, Pre-emergence, flood-test species, scale 0 to 10, 0 is no effect, 10 is complete control
[12] = Rate 500 g/ha, Pre-emergence, flood test species, scale 0 to 10 (0 no effect, 10 complete control)

`CC(C)N(C(=O)n1oc(=O)n(CC(C)(C)C)c1=O)c1ccc(F)cc1F` [Compound 277] was tested, and the “Crabgrass plant response rating” value (crabgrass; [1]) was 4, the “Crabgrass plant response rating” value (crabgrass; [2]) was 9 and the “Plant response rating, Crabgrass” value (crabgrass; [3]) was 10. For the same compound, the “Crabgrass plant response rating” value (crabgrass; [4]) was 1, the “Crabgrass plant response rating” value (crabgrass; [5]) was 2 and the “Crabgrass plant response rating” value (crabgrass; [6]) was 4. The “Plant response rating, Crabgrass” value (crabgrass; [7]) was 5, the “Crabgrass plant response rating” value (crabgrass; [8]) was 6 and the “Nutsedge plant response rating” value (purple nutsedge; [1]) was 0. For the same compound, the “Nutsedge plant response rating” value (purple nutsedge; [2]) was 0, the “Plant response rating, Nutsedge” value (purple nutsedge; [3]) was 0 and the “Nutsedge plant response rating” value (purple nutsedge; [4]) was 0. The “Nutsedge plant response rating” value (purple nutsedge; [5]) was 0, the “Nutsedge plant response rating” value (purple nutsedge; [6]) was 0 and the “Plant response rating, Nutsedge” value (purple nutsedge; [7]) was 0. The “Nutsedge plant response rating” value (purple nutsedge; [8]) was 0, the “B. signalgrass plant response rating” value (surinam grass; [2]) was 10 and the “Plant response rating, B. signalgrass” value (surinam grass; [3]) was 10. For the same compound, the “B. signalgrass plant response rating” value (surinam grass; [4]) was 0, the “B. signalgrass plant response rating” value (surinam grass; [5]) was 0 and the “B. signalgrass plant response rating” value (surinam grass; [6]) was 9. For the same compound, the “Plant response rating, B. signalgrass” value (surinam grass; [7]) was 1, the “B. signalgrass plant response rating” value (surinam grass; [8]) was 3 and the “Corn plant response rating” value (corn; [1]) was 0. For the same compound, the “Corn plant response rating” value (corn; [2]) was 0, the “Plant response rating, Corn” value (corn; [3]) was 3 and the “Corn plant response rating” value (corn; [4]) was 0. The “Corn plant response rating” value (corn; [5]) was 0, the “Corn plant response rating” value (corn; [6]) was 0 and the “Plant response rating, Corn” value (corn; [7]) was 0. The “Corn plant response rating” value (corn; [8]) was 0, the “Ducksalad plant response rating” value (duck salad; [9]) was 1 and the “Ducksalad plant response rating” value (duck salad; [10]) was 2. For the same compound, the “Ducksalad plant response rating” value (duck salad; [11]) was 2, the “Ducksalad plant response rating” value (duck salad; [12]) was 2 and the “Rice plant response rating” value (rice; [9]) was 0. The “Rice plant response rating” value (rice; [10]) was 0, the “Rice plant response rating” value (rice; [11]) was 0 and the “Rice plant response rating” value (rice; [12]) was 2. For the same compound, the “Redroot pigweed plant response rating” value (pigweed; [2]) was 0, the “Plant response rating, Redroot pigweed” value (pigweed; [3]) was 5 and the “Redroot pigweed plant response rating” value (pigweed; [4]) was 1. The “Redroot pigweed plant response rating” value (pigweed; [5]) was 2, the “Redroot pigweed plant response rating” value (pigweed; [6]) was 0 and the “Plant response rating, Redroot pigweed” value (pigweed; [7]) was 4. The “Redroot pigweed plant response rating” value (pigweed; [8]) was 5, the “Rape plant response rating” value (rape; [2]) was 1 and the “Plant response rating, Rape” value (rape; [3]) was 2. The “Rape plant response rating” value (rape; [4]) was 0, the “Rape plant response rating” value (rape; [5]) was 2 and the “Rape plant response rating” value (rape; [6]) was 1. The “Plant response rating, Rape” value (rape; [7]) was 3, the “Rape plant response rating” value (rape; [8]) was 3 and the “Blackgrass plant response rating” value (blackgrass; [2]) was 10. For the same compound, the “Plant response rating, Blackgrass” value (blackgrass; [3]) was 10, the “Blackgrass plant response rating” value (blackgrass; [4]) was 2 and the “Blackgrass plant response rating” value (blackgrass; [5]) was 8. The “Blackgrass plant response rating” value (blackgrass; [6]) was 9, the “Plant response rating, Blackgrass” value (blackgrass; [7]) was 8 and the “Blackgrass plant response rating” value (blackgrass; [8]) was 8. For the same compound, the “Soybean plant response rating” value (soybean; [1]) was 0, the “Soybean plant response rating” value (soybean; [2]) was 0 and the “Plant response rating, Soybean” value (soybean; [3]) was 4. For the same compound, the “Soybean plant response rating” value (soybean; [4]) was 3, the “Soybean plant response rating” value (soybean; [5]) was 4 and the “Soybean plant response rating” value (soybean; [6]) was 0. For the same compound, the “Plant response rating, Soybean” value (soybean; [7]) was 6, the “Soybean plant response rating” value (soybean; [8]) was 8 and the “Cocklebur plant response rating” value (cocklebur; [1]) was 0. For the same compound, the “Cocklebur plant response rating” value (cocklebur; [2]) was 0, the “Plant response rating, Cocklebur” value (cocklebur; [3]) was 0 and the “Cocklebur plant response rating” value (cocklebur; [4]) was 0. For the same compound, the “Cocklebur plant response rating” value (cocklebur; [5]) was 0, the “Cocklebur plant response rating” value (cocklebur; [6]) was 0 and the “Plant response rating, Cocklebur” value (cocklebur; [7]) was 1. The “Cocklebur plant response rating” value (cocklebur; [8]) was 2, the “Sugarbeets plant response rating” value (sugar beet; [2]) was 2 and the “Plant response rating, Sugarbeets” value (sugar beet; [3]) was 7. The “Sugarbeets plant response rating” value (sugar beet; [4]) was 1, the “Sugarbeets plant response rating” value (sugar beet; [5]) was 2 and the “Sugarbeets plant response rating” value (sugar beet; [6]) was 1. The “Plant response rating, Sugarbeets” value (sugar beet; [7]) was 4, the “Sugarbeets plant response rating” value (sugar beet; [8]) was 5 and the “Morningglory plant response rating” value (morningglory; [1]) was 0. The “Morningglory plant response rating” value (morningglory; [2]) was 0, the “Plant response rating, Morningglory” value (morningglory; [3]) was 0 and the “Morningglory plant response rating” value (morningglory; [4]) was 7. The “Morningglory plant response rating” value (morningglory; [5]) was 8, the “Morningglory plant response rating” value (morningglory; [6]) was 0 and the “Plant response rating, Morningglory” value (morningglory; [7]) was 8. For the same compound, the “Morningglory plant response rating” value (morningglory; [8]) was 9, the “Wild oats plant response rating” value (wild oat; [2]) was 7 and the “Plant response rating, Wild oats” value (wild oat; [3]) was 8. For the same compound, the “Wild oats plant response rating” value (wild oat; [4]) was 0, the “Wild oats plant response rating” value (wild oat; [5]) was 0 and the “Plant response rating, Wild oats” value (wild oat; [7]) was 0. The “Wild oats plant response rating” value (wild oat; [8]) was 2, the “Velvetleaf plant response rating” value (velvetleaf; [1]) was 0 and the “Velvetleaf plant response rating” value (velvetleaf; [2]) was 6. The “Plant response rating, Velvetleaf” value (velvetleaf; [3]) was 7, the “Velvetleaf plant response rating” value (velvetleaf; [4]) was 1 and the “Velvetleaf plant response rating” value (velvetleaf; [5]) was 1. The “Velvetleaf plant response rating” value (velvetleaf; [6]) was 1, the “Plant response rating, Velvetleaf” value (velvetleaf; [7]) was 1 and the “Velvetleaf plant response rating” value (velvetleaf; [8]) was 1. For the same compound, the “Giant foxtail plant response rating” value (giant foxtail; [1]) was 10, the “Giant foxtail plant response rating” value (giant foxtail; [2]) was 10 and the “Plant response rating, Giant foxtail” value (giant foxtail; [3]) was 10. The “Giant foxtail plant response rating” value (giant foxtail; [4]) was 2, the “Giant foxtail plant response rating” value (giant foxtail; [5]) was 3 and the “Giant foxtail plant response rating” value (giant foxtail; [6]) was 10. The “Plant response rating, Giant foxtail” value (giant foxtail; [7]) was 4 and the “Giant foxtail plant response rating” value (giant foxtail; [8]) was 6.
